# Data: paper PMC6858350, “A common mechanism allows selective targeting of GluN2B subunit-containing N-methyl-D-aspartate receptors” (Communications Biology, 2019)
# Marks after values point to notes of the source that are not given here.
# Columns and labels:
# [1] = biological target: GluN1-1a/GluN2B NMDAR (wildtype) (Rattus norvegicus, UniProt P35439+Q00960); type: cell-based; conditions: for IC50 / p (slope of the dose-response curve) / A2 ± SE (maximum inhibition from dose-response curve): TEVC, wildtype; for IC50: holding potential −70 mV, 10 µM glycine and 10 µM (S)-glutamate, read-out: IC50 ± SE; for p (slope of the dose-response curve) / A2 ± SE (maximum inhibition from dose-response curve): −70 mV; for A2 (maximum inhibition), set as identical with rac-1: due to non-saturating inhibition A2 was fixed, not fitted; for A2 ± SE (maximum inhibition from dose-response curve): flexible A2; for inhibition at 10 µM: read-out: ion current inhibition % ± SEM, GluN2B
# GluN1-1a WT/GluN2B F176A [2] = biological target: T1, GluN1-1a WT/GluN2B F176A (Rattus norvegicus, UniProt P35439+Q00960, F176A); conditions: GluN2B F176A; for A2, fixed-to-wildtype (*): maximum inhibition fixed to wildtype value
# GluN1-1a WT/GluN2B F114A [3] = biological target: T2, GluN1-1a WT/GluN2B F114A (Rattus norvegicus, UniProt P35439+Q00960, F114A); conditions: GluN2B F114A; for A2, fixed-to-wildtype (*): maximum inhibition fixed to wildtype value
# GluN1-1a WT/GluN2B I111A [4] = biological target: T3, GluN1-1a WT/GluN2B I111A (Rattus norvegicus, UniProt P35439+Q00960, I111A); conditions: GluN2B I111A; for A2 ± SE: flexible A2
# GluN1-1a L135N/GluN2B WT [5] = biological target: T4, GluN1-1a L135N/GluN2B WT (Rattus norvegicus, UniProt P35439+Q00960, L135N); conditions: GluN1-1a L135N; for A2 ± SE: flexible A2
# GluN1-1a WT/GluN2B Q110A [6] = biological target: T5, GluN1-1a WT/GluN2B Q110A (Rattus norvegicus, UniProt P35439+Q00960, Q110A); conditions: GluN2B Q110A; for A2 ± SE: flexible A2
# GluN1-1a F113S/GluN2B WT [7] = biological target: T6, GluN1-1a F113S/GluN2B WT (Rattus norvegicus, UniProt P35439+Q00960, F113S); conditions: GluN1-1a F113S; for A2 ± SE: flexible A2
# GluN1-1a WT/GluN2B F114A [8] = biological target: T2, GluN1-1a WT/GluN2B F114A; assay: cell-based
# [9] = tested on: NMDA receptor-dependent EPSCs in CA1 pyramidal neurons; assay: whole cell patch-clamp of evoked NMDAR-dependent EPSCs in hippocampal slices; type: cell-based, C57BL/6J mice; conditions: n = 5; for EPSC amplitude after washout, % of the initial baseline (SEM): washout of compound
# GluN1-1a F113S/GluN2B WT [10] = biological target: T6, GluN1-1a F113S/GluN2B WT; assay: cell-based
# GluN1-1a WT/GluN2B I111A [11] = biological target: T3, GluN1-1a WT/GluN2B I111A; assay: cell-based
# GluN1-1a Y109S/GluN2B WT [12] = biological target: T7, GluN1-1a Y109S/GluN2B WT (Rattus norvegicus, UniProt P35439+Q00960, Y109S); assay: cell-based
# GluN1-1a S132A/GluN2B WT [13] = biological target: T8, GluN1-1a S132A/GluN2B WT (Rattus norvegicus, UniProt P35439+Q00960, S132A); assay: cell-based
# GluN1-1a WT/GluN2B E236A [14] = biological target: T9, GluN1-1a WT/GluN2B E236A (Rattus norvegicus, UniProt P35439+Q00960, E236A); assay: cell-based
# GluN1-1a WT/GluN2B F176Y [15] = biological target: T10, GluN1-1a WT/GluN2B F176Y (Rattus norvegicus, UniProt P35439+Q00960, F176Y); conditions: GluN2B F176Y; for A2, fixed-to-wildtype (*): maximum inhibition fixed to wildtype value
# GluN1-1a WT/GluN2B F176A [16] = biological target: T1, GluN1-1a WT/GluN2B F176A; assay: cell-based
# GluN1-1a WT/GluN2B E236A [17] = biological target: T9, GluN1-1a WT/GluN2B E236A; conditions: GluN2B E236A; for A2 ± SE: flexible A2
# GluN1-1a WT/GluN2B F176Y [18] = biological target: T10, GluN1-1a WT/GluN2B F176Y; assay: cell-based
# GluN1-1a S132A/GluN2B WT [19] = biological target: T8, GluN1-1a S132A/GluN2B WT; conditions: GluN1-1a S132A; for A2 ± SE: flexible A2
# GluN1-1a/GluN2A NMDAR = GluN1-1a/GluN2A NMDAR (Rattus norvegicus, UniProt P35439+Q00959); assay: cell-based; conditions: read-out: ion current inhibition % ± SEM, GluN2A
# GluN1-1a WT/GluN2B Q110A [20] = biological target: T5, GluN1-1a WT/GluN2B Q110A; assay: cell-based
# GluN1-1a L135N/GluN2B WT [21] = biological target: T4, GluN1-1a L135N/GluN2B WT; assay: cell-based
# GluN1-1a Y109S/GluN2B WT [22] = biological target: T7, GluN1-1a Y109S/GluN2B WT; conditions: GluN1-1a Y109S; for A2 ± SE: flexible A2
# GluN1-1a/GluN2C NMDAR = GluN1-1a/GluN2C NMDAR (Rattus norvegicus, UniProt P35439+Q00961); assay: cell-based; conditions: read-out: ion current inhibition % ± SEM, GluN2C
# GluN1-1a/GluN2D NMDAR = GluN1-1a/GluN2D NMDAR (Rattus norvegicus, UniProt P35439+Q62645); assay: cell-based; conditions: read-out: ion current inhibition % ± SEM, GluN2D
# T1 sequence (Q00960 27-1482 F176A, other chains not shown): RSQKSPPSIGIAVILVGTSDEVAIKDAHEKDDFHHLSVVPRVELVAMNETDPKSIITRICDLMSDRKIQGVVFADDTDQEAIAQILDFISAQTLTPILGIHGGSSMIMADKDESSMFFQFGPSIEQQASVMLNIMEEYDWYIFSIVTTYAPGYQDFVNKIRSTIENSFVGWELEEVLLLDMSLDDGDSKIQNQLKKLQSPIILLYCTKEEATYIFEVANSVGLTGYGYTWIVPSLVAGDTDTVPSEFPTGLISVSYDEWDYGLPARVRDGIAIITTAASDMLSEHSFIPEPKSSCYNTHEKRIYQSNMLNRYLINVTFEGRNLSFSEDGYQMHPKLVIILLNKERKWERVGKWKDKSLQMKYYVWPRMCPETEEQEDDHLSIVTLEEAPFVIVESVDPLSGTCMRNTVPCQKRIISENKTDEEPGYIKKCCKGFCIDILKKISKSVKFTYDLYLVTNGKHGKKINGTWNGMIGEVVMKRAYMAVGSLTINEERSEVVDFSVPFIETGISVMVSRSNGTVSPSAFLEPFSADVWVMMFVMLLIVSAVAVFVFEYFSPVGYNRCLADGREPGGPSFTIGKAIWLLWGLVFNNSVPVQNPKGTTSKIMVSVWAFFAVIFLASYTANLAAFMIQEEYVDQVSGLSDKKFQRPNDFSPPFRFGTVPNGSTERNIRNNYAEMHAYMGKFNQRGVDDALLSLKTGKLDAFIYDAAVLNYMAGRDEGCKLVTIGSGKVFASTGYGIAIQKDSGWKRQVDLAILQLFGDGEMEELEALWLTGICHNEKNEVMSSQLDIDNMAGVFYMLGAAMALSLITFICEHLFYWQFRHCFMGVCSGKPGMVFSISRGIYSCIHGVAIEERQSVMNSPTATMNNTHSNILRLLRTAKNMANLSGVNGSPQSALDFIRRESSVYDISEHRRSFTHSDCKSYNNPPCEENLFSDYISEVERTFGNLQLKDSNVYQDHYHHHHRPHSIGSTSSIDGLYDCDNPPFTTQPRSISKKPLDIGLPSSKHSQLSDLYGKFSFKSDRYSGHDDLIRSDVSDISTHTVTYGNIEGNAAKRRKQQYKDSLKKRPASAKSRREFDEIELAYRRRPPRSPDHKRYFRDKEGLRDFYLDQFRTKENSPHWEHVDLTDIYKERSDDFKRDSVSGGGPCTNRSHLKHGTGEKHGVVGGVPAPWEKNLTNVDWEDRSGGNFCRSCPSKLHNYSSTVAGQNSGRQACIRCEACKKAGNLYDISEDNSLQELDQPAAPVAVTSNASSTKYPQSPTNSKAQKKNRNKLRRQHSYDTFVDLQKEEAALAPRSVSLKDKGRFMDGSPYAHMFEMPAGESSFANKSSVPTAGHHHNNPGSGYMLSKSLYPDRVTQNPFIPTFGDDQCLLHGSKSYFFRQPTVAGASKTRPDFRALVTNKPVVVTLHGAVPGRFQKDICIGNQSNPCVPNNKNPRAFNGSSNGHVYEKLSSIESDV
# T10 sequence (Q00960 27-1482 F176Y, other chains not shown): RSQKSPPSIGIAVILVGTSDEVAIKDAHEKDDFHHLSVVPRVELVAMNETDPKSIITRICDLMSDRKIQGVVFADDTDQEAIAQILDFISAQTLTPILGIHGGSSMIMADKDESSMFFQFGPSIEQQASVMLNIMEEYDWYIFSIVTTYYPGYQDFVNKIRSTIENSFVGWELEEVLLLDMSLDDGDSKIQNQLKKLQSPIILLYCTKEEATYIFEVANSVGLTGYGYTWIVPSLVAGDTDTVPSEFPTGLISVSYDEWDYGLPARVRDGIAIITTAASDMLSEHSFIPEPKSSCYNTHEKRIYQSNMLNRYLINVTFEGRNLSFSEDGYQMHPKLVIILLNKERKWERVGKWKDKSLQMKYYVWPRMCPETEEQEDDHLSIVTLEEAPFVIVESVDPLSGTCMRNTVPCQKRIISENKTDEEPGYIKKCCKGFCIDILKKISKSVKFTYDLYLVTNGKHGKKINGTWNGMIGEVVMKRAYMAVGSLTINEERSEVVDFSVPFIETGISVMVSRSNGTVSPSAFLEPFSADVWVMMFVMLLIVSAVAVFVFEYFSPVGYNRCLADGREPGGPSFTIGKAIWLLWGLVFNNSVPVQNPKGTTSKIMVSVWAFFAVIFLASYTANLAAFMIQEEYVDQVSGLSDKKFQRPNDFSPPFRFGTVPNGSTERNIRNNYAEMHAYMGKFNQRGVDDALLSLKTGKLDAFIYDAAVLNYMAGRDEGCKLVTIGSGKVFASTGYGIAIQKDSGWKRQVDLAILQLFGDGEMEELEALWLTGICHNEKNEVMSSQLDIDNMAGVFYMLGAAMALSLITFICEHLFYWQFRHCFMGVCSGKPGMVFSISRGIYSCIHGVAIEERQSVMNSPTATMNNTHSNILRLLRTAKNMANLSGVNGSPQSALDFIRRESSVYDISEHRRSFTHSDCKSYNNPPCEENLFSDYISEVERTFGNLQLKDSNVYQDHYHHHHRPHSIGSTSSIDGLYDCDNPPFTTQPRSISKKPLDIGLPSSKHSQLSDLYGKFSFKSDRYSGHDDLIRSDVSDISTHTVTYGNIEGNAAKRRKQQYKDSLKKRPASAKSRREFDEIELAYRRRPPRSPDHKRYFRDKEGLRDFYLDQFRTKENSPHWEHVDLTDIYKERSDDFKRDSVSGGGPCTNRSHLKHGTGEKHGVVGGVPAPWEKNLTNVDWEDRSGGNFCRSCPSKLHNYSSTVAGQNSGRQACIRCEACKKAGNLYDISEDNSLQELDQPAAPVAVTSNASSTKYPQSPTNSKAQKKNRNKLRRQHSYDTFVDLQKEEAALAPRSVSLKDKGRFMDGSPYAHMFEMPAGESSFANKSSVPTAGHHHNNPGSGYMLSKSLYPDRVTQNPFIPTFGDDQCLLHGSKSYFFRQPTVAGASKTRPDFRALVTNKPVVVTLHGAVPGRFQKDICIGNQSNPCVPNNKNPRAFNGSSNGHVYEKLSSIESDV
# T2 sequence (Q00960 27-1482 F114A, other chains not shown): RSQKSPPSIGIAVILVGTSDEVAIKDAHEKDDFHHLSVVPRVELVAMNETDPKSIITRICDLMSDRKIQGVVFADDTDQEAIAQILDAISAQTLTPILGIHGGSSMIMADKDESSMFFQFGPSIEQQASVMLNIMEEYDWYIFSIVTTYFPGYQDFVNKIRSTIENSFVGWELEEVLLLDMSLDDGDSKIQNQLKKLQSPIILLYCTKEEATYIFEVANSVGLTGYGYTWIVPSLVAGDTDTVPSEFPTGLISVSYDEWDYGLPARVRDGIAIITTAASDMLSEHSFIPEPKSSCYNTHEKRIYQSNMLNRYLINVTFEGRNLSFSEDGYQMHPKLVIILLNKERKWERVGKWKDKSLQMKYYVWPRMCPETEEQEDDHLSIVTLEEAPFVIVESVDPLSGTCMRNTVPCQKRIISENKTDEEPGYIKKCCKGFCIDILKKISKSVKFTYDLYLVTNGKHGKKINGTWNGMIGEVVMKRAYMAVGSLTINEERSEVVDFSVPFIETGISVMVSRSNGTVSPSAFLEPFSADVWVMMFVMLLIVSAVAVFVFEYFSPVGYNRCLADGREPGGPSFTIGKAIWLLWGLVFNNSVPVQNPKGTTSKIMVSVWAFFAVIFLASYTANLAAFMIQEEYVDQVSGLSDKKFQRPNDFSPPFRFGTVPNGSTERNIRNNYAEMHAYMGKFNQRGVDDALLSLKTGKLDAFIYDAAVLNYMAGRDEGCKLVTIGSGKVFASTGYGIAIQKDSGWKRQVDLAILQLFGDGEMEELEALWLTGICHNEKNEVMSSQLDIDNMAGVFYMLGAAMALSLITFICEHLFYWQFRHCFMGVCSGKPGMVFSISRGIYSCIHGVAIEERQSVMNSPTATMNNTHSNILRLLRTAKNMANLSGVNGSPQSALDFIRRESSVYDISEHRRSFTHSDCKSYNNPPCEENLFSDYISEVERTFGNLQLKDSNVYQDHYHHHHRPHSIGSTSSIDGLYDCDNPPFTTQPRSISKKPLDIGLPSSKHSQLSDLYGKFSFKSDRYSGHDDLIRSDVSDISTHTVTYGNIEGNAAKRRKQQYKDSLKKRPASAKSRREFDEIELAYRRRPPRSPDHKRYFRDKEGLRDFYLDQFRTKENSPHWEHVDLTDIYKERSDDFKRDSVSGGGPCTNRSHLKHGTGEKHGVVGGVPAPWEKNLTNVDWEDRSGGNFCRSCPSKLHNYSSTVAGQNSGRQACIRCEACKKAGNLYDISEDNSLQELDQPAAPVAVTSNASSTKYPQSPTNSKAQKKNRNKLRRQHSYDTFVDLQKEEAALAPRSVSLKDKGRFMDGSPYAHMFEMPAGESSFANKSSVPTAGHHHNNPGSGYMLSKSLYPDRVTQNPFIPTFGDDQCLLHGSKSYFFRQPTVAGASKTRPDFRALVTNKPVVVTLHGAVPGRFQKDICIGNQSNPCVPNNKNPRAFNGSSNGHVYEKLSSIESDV
IC50 [1] [nM],"A2 (maximum inhibition), set as identical with rac-1 [1]",SMILES,p (slope of the dose-response curve) [1],p (slope) (GluN1-1a WT/GluN2B F176A [2]),"A2, fixed-to-wildtype (*) (GluN1-1a WT/GluN2B F176A [2]) [%]",p (slope) (GluN1-1a WT/GluN2B F114A [3]),"A2, fixed-to-wildtype (*) (GluN1-1a WT/GluN2B F114A [3]) [%]",p (slope) (GluN1-1a WT/GluN2B I111A [4]),A2 ± SE (GluN1-1a WT/GluN2B I111A [4]) [%],p (slope) (GluN1-1a L135N/GluN2B WT [5]),A2 ± SE (GluN1-1a L135N/GluN2B WT [5]) [%],p (slope) (GluN1-1a WT/GluN2B Q110A [6]),A2 ± SE (GluN1-1a WT/GluN2B Q110A [6]) [%],p (slope) (GluN1-1a F113S/GluN2B WT [7]),A2 ± SE (GluN1-1a F113S/GluN2B WT [7]) [%],"EPSC amplitude after washout, % of the initial baseline (SEM) [9] [%]",p (slope) (GluN1-1a WT/GluN2B F176Y [15]),"A2, fixed-to-wildtype (*) (GluN1-1a WT/GluN2B F176Y [15]) [%]",p (slope) (GluN1-1a WT/GluN2B E236A [17]),A2 ± SE (GluN1-1a WT/GluN2B E236A [17]) [%],other results
2630 ± 296,93^d %,Oc1ccc2c(c1)CCN([C@H]1CC[C@H](c3ccccc3)CC1)CC2O (some centres unmarked) [compound 6],0.70,,,,,,,,,,,,,,,,,,
7210 ± 1770,93^d %,Oc1ccc2c(c1)CCN([C@H]1CC[C@@H](c3ccccc3)CC1)CC2O (some centres unmarked) [compound 7],0.62,,,,,,,,,,,,,,,,,,
,,"CC(C(O)c1ccc(O)cc1)N1CCC(Cc2ccccc2)CC1 (centres unmarked) [ifenprodil, reference compound]",0.97,0.87,94,0.63,94,0.90,68 ± 7,0.99,76 ± 3,0.64,98 ± 5,1.09,72 ± 3,31.9 ± 5,0.57,94,1.18,88 ± 5,"EPSC amplitude, % of the initial baseline (SEM) ([9]; 1 µM compound): 74.4 ± 8.9%; EPSC amplitude, % of the initial baseline (SEM) ([9]; 6 µM compound): 22.7 ± 4.7%; p (slope) (GluN1-1a S132A/GluN2B WT [19]): 0.79; A2 ± SE (GluN1-1a S132A/GluN2B WT [19]): 89 ± 3%; inhibition at 10 µM (GluN1-1a/GluN2A NMDAR): 5 ± 1%; A2 ± SE (maximum inhibition from dose-response curve) [1]: 94 ± 2%; inhibition at 10 µM [1]: 91 ± 1%; p (slope) (GluN1-1a Y109S/GluN2B WT [22]): 0.88; A2 ± SE (GluN1-1a Y109S/GluN2B WT [22]): 74 ± 2%; inhibition at 10 µM (GluN1-1a/GluN2C NMDAR): 9 ± 1%; inhibition at 10 µM (GluN1-1a/GluN2D NMDAR): 24 ± 4%"

SMILES,IC50 [1] [nM],"A2 (maximum inhibition), set as identical with rac-1 [1]",p (slope of the dose-response curve) [1],p (slope) (GluN1-1a WT/GluN2B F176A [2]),"A2, fixed-to-wildtype (*) (GluN1-1a WT/GluN2B F176A [2]) [%]",p (slope) (GluN1-1a WT/GluN2B F114A [3]),"A2, fixed-to-wildtype (*) (GluN1-1a WT/GluN2B F114A [3]) [%]",p (slope) (GluN1-1a WT/GluN2B I111A [4]),A2 ± SE (GluN1-1a WT/GluN2B I111A [4]) [%],p (slope) (GluN1-1a L135N/GluN2B WT [5]),A2 ± SE (GluN1-1a L135N/GluN2B WT [5]) [%],p (slope) (GluN1-1a WT/GluN2B Q110A [6]),A2 ± SE (GluN1-1a WT/GluN2B Q110A [6]) [%],p (slope) (GluN1-1a F113S/GluN2B WT [7]),A2 ± SE (GluN1-1a F113S/GluN2B WT [7]) [%],"EPSC amplitude after washout, % of the initial baseline (SEM) [9] [%]",p (slope) (GluN1-1a WT/GluN2B F176Y [15]),"A2, fixed-to-wildtype (*) (GluN1-1a WT/GluN2B F176Y [15]) [%]",p (slope) (GluN1-1a WT/GluN2B E236A [17]),A2 ± SE (GluN1-1a WT/GluN2B E236A [17]) [%],other results
Oc1ccc2c(c1)CCN(CCCCc1ccccc1)C[C@@H]2O [compound (R)-1],53 ± 3,,1.11,0.40,93,1.35,93,0.92,66 ± 3,0.66,72 ± 3,2.18,91 ± 1,0.50,77 ± 5,30.9 ± 3.6,0.82,93,1.32,85 ± 1,"IC50 (GluN1-1a WT/GluN2B F114A [8]): 4080 ± 423 nM; EPSC amplitude, % of the initial baseline (SEM) ([9]; 2 µM compound): 60.2 ± 2.8%; EPSC amplitude, % of the initial baseline (SEM) ([9]; 7 µM compound): 13.8 ± 1.4%; IC50 (GluN1-1a F113S/GluN2B WT [10]): 117 ± 48 nM; IC50 (GluN1-1a WT/GluN2B I111A [11]): 137 ± 31 nM; IC50 (GluN1-1a Y109S/GluN2B WT [12]): 20 ± 2 nM; IC50 (GluN1-1a S132A/GluN2B WT [13]): 106 ± 14 nM; IC50 (GluN1-1a WT/GluN2B E236A [14]): 194 ± 30 nM; IC50 (GluN1-1a WT/GluN2B F176A [16]): 105000 ± 41000 nM; IC50 (GluN1-1a WT/GluN2B F176Y [18]): 107 ± 20 nM; A2 ± SE (GluN1-1a S132A/GluN2B WT [19]): 92 ± 2%; inhibition at 10 µM (GluN1-1a/GluN2A NMDAR): 4 ± 1%; A2 ± SE (maximum inhibition from dose-response curve) [1]: 93 ± 1%; inhibition at 10 µM [1]: 95 ± 1%; IC50 (GluN1-1a WT/GluN2B Q110A [20]): 393 ± 24 nM; IC50 (GluN1-1a L135N/GluN2B WT [21]): 293 ± 74 nM; p (slope) (GluN1-1a Y109S/GluN2B WT [22]): 1.42; A2 ± SE (GluN1-1a Y109S/GluN2B WT [22]): 92 ± 2%; inhibition at 10 µM (GluN1-1a/GluN2C NMDAR): 8 ± 1%; inhibition at 10 µM (GluN1-1a/GluN2D NMDAR): 18 ± 3%"
